# According to patent US8114862B2, “TGR5 modulators and methods of use thereof” (Intercept Pharmaceuticals, Inc., priority 2008, dated 2012):
# What was measured:
# [1] = molecular target: T1, LXRα (Homo sapiens, UniProt Q13133); assay: LXR coactivator recruitment (alphascreen); type: biochemical
# T1 sequence (Q13133 1-447): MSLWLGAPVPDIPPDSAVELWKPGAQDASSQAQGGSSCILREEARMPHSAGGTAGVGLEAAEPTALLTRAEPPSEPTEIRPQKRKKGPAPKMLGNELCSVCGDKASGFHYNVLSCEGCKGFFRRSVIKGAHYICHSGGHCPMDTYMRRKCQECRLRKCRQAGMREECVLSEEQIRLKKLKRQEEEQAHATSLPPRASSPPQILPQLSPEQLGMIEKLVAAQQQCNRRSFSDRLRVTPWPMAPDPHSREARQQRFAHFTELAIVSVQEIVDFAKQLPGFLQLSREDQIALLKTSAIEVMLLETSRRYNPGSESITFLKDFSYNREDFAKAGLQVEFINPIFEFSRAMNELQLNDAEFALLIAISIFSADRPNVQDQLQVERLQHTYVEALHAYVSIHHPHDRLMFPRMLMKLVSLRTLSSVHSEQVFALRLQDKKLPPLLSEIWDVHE
# [2] = tested on: intestinal bacteria; assay: Metabolic stability in human stool culture (7α-dehydroxylation); type: in vitro ADME
# Experimental: Homogenized fresh human stools (500 mg) were transferred into sterile vials to which 5 mL of sterilized chopped meat-glucose medium (Scott Lab., Fiskville, R.I.) was added. BA was then added at a final concentration of 0.05 mM. […] The samples were centrifuged at 3500 rpm for 10 min; from the supernatant the BA were isolated by C-18 solid-phase extraction and analyzed by TLC and HPLC-ES-MS/MS.
# Thin-layer chromatography (TLC), utilizing silica gel 0.25 mm thickness plates (Merck, Darmstat, Germany), was employed as the first screening test. The solvent system used for the separation of conjugated BA was composed of propionic acid/isoamyl acetate/water/N-propanol (3:4:1:2, v/v/v/v; solvent I), and that of the unconjugated BA was acetic acid/carbon tetrachloride/isopropyl ether/isoamyl acetate/water/N-propanol/benzene (1:4:6:8:2:2, v/v/v/v/v/v; solvent II).
# [3] = molecular target: T2, CAR (Homo sapiens, UniProt Q14994); assay: CAR coactivator recruitment (Lanthascreen); type: biochemical; settings: read-out: CAR Activation EC50
# T2 construct: purchased Invitrogen
# T2 sequence (Q14994 109-352 limits assumed): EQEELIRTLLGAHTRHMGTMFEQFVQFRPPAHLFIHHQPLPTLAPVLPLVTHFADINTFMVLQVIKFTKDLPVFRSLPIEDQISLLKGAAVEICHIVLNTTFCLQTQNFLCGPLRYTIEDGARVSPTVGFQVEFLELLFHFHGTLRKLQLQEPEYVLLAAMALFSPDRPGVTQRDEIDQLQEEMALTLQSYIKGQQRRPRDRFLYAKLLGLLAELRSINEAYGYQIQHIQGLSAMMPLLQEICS
# Experimental: CAR: Coactivator Recruitment (Lanthascreen)
# Lanthascreen assay (Invitrogen) was used for nulear receptor selectivity assay. The kit uses a terbium-labeled anti-GST antibody, a fluorescein-labeled coactivator peptide, and a NR ligand-binding domain that is tagged with glutathione-S-transferase (GST) in a homogenous mix-and-read assay format. […] Following 1 hour incubation in the dark, TR-FRET measurements were made in the Envision. […] The data was analyzed using GraphPad Prism using the sigmoidal curve equation with variable slope to obtain EC50 values.
# [4] = Critical micellar concentration by surface tension; type: physicochemical; settings: […] NaCl water solution
# Experimental: The critical micellar concentration (CMC) was determined by surface tension (ST) measurements using a maximum bubble-pressure method which give surface tension values […] by potential impurities like static methods are. The tensiometer was a […] Research Corp., Milwaukee, Wis.) equipped with two glass probes of 0.5 and 4.0 mm diameters connected to a source of nitrogen. […] The surface tension values were plotted against the logarithm of the bile salt concentration; the regression lines corresponding to the two parts of the curve (monomeric and micellar phases) were calculated using the method of least squares, and the intersection of the lines was taken as the CMC value. From the ST vs concentration curves the value of the surface tension at the CMC (equilibrium between monomers and multimers species) was also calculated giving information about the detergency power which is related to the size of the micelles with associate surface tension lowering capacity. The CMC was evaluated by surface tension measurements in non equilibrium conditions i.e. in conditions that impurities slightly affect the surface tension results (FIG. 10).
# [5] = molecular target: T3, VDR (Homo sapiens, UniProt P11473); assay: VDR coactivator recruitment assay
# T3 sequence (P11473 127-423 limits assumed): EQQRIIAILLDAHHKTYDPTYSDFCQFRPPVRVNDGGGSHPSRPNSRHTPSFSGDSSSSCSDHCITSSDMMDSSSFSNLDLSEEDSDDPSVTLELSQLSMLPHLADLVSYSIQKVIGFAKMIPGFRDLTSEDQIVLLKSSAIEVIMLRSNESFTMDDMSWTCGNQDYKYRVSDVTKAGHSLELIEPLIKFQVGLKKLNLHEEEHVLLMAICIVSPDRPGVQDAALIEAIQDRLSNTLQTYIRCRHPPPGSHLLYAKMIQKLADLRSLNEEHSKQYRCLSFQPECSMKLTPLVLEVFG
# [6] = Stability in human liver microsomes; settings: liver microsomes
# [7] = tested on: primary brown adipocytes; assay: O2 consumption in primary brown adipocytes; type: cell-based, mouse; settings: treated for 12 hr, 3 μM
compound,measurement,setting,value
"CC[C@H]1[C@@H](O)[C@@H]2[C@H](C[C@H](O)[C@]3(C)[C@@H]([C@H](C)C[C@H](C)C(=O)O)CC[C@@H]23)[C@@]2(C)CC[C@@H](O)C[C@@H]12 [Ih3e, 6α-ethyl-(23S)-methyl-3α,7α,12α trihydroxy-5β-cholan-24-oic acid]",LXRα Activation EC50,[1],No activity
same,7-dehydroxylation and intermediate formation of a 7-oxo derivative,[2],practically abolished
same,side chain stability to intestinal bacteria enzymatic activities,[2],not modified
same,compound recovered unmodified,[2]; after 24 hour incubation,more than 85%
same,compound unmodified,"[2]; human, 12 h, 0.05 mM",more than 95%
same,EC50,[3],> 250 µM
same,CMC […] Na+,[4],1.4 mM
same,STCMC (surface tension at CMC),[4],50.1 Dyne/cm
same,VDR Activation EC50,[5],No activity
same,half-life,[6],32.4 h
same,O2 consumption after FCCP,[7],significantly more pronounced
